Laboratory results from ChEMBL document CHEMBL1828583, “Discovery process and pharmacological characterization of a novel dual orexin 1 and orexin 2 receptor antagonist useful for treatment of sleep disorders” (Bioorg Med Chem Lett, 2011).
Blank lines part the entries; values can stand above or below the compound they belong to. Calls of active or inactive are those of the source. No cut-off for these calls is given here.

How the values were obtained:
[1] = biological target: T1, Orexin/Hypocretin receptor type 1 (Homo sapiens, UniProt O43613); assay: Antagonist activity at recombinant human OX1R expressed in CHO cells by FLIPR calcium based functional assay; assay type: cell-based
T1 sequence (O43613 whole entry): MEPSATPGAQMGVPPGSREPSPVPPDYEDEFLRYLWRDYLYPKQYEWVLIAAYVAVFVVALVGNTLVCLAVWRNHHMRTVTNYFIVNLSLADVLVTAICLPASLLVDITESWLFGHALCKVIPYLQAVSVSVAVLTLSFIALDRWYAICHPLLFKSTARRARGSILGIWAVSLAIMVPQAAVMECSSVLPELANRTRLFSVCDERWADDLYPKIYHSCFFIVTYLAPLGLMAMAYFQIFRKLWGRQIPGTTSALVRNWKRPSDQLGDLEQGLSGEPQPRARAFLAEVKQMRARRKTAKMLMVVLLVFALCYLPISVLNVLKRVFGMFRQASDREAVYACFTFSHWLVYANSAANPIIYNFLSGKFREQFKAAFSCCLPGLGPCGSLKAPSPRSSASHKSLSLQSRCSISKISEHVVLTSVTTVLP

[2] = biological target: T2, Orexin receptor type 2 (Homo sapiens, UniProt O43614); assay: Antagonist activity at recombinant human OX2R expressed in CHO cells by FLIPR calcium based functional assay; assay type: cell-based
T2 sequence (O43614 whole entry): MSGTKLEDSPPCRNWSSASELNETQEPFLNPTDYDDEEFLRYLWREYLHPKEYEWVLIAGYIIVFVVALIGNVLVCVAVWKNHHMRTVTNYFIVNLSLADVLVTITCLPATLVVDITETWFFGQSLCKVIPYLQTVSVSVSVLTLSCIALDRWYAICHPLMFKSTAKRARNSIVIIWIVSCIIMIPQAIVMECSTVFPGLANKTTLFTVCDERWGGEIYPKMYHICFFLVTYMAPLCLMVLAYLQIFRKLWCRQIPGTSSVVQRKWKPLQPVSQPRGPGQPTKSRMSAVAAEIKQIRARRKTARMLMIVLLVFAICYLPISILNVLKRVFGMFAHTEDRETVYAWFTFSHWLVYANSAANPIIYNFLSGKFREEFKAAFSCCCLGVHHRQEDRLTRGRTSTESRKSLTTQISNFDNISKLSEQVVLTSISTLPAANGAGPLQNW

[3] = Oral bioavailability in CD rat at 3 mg/kg; assay type: ADME, organism-based; conditions: in vivo
[4] = tested on: Rattus norvegicus; assay: Hypnotic activity in CD rat Circadian time model assessed as rapid eye movement latency period at 3 mg/kg, po administered during active phase measured from starting time CT18 (reference value: 146.3 +/- 54.2 mins); assay type: functional
[5] = tested on: Rattus norvegicus; assay: Hypnotic activity in CD rat Circadian time model assessed as rapid eye movement latency period at 10 mg/kg, po administered during active phase measured from starting time CT18 (reference value: 146.3 +/- 54.2 mins); assay type: functional
[6] = Volume of distribution at steady state in CD rat at 1 mg/kg, iv and 3 mg/kg, po; assay type: ADME, organism-based; conditions: in vivo, read-out: Vdss
[7] = tested on: Rattus norvegicus; assay: Hypnotic activity in CD rat Circadian time model assessed as rapid eye movement latency period at 30 mg/kg, po administered during active phase measured from starting time CT18 (reference value: 146.3 +/- 54.2 mins); assay type: functional
[8] = tested on: Rattus norvegicus; assay: Hypnotic activity in CD rat Circadian time model assessed as non-rapid eye movement sleep at 10 mg/kg, po administered during active phase measured from starting time CT18 (reference value: 78.1 +/- 11.3 mins); assay type: functional
[9] = tested on: Rattus norvegicus; assay: Hypnotic activity in CD rat Circadian time model assessed as non-rapid eye movement sleep at 3 mg/kg, po administered during active phase measured from starting time CT18 (reference value: 78.1 +/- 11.3 mins); assay type: functional
[10] = biological target: T1, Orexin/Hypocretin receptor type 1; assay: Displacement of [3H]almorexant from recombinant human OX1R expressed in CHO cells; assay type: cell-based
[11] = biological target: T3, Orexin/Hypocretin receptor type 1 (Homo sapiens) (UniProt O43613); assay: Agonist activity at recombinant human OX1R expressed in CHO cells at 1 uM; assay type: functional, cell-based
T3 sequence (whole entry): T1 sequence (O43613 whole entry)

[12] = tested on: Rattus norvegicus; assay: Hypnotic activity in CD rat Circadian time model assessed as total sleep time at 10 mg/kg, po administered during active phase (reference value: 81 +/- 11 mins); assay type: functional
[13] = tested on: Rattus norvegicus; assay: Hypnotic activity in CD rat Circadian time model assessed as awake period at 30 mg/kg, po administered during active phase measured from starting time CT18 (reference value: 218 +/- 11.32 mins); assay type: functional
[14] = tested on: Rattus norvegicus; assay: Hypnotic activity in po dosed CD rat Circadian time model assessed as non-rapid eye movement latency period during active phase measured from starting time CT18; assay type: functional, organism-based
[15] = Cmax in CD rat at 1 mg/kg, iv and 3 mg/kg, po; assay type: ADME, organism-based; conditions: in vivo
[16] = tested on: Rattus norvegicus; assay: Hypnotic activity in CD rat Circadian time model assessed as non-rapid eye movement latency period at 10 mg/kg, po administered during active phase measured from starting time CT18 (reference value: 46.1 +/- 10.0 mins); assay type: functional
[17] = tested on: Rattus norvegicus; assay: Hypnotic activity in CD rat Circadian time model assessed as awake period at 10 mg/kg, po administered during active phase measured from starting time CT18 (reference value: 218 +/- 11.32 mins); assay type: functional
[18] = biological target: T4, Orexin receptor type 2 (Rattus norvegicus, UniProt P56719); assay: Antagonist activity at recombinant rat OX2R expressed in CHO cells by FLIPR calcium based functional assay; assay type: cell-based
T4 sequence (P56719 whole entry): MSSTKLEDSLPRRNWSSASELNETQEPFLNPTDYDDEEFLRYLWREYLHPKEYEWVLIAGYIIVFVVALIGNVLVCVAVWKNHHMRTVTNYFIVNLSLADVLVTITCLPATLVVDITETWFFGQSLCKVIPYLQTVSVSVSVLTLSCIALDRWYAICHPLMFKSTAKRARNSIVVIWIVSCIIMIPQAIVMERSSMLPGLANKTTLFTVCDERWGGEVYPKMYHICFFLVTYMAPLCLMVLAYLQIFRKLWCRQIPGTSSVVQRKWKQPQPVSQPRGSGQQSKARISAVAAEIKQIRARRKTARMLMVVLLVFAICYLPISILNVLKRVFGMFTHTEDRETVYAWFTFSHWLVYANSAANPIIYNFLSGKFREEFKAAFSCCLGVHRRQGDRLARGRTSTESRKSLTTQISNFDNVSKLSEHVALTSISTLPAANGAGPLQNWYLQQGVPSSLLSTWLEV

[19] = tested on: Rattus norvegicus; assay: Hypnotic activity in po dosed CD rat Circadian time model assessed as total sleep time measured during active phase after 5 hrs; assay type: functional, organism-based
[20] = Plasma clearance in CD rat at 1 mg/kg, iv and 3 mg/kg, po; assay type: ADME, organism-based
[21] = tested on: Rattus norvegicus; assay: Hypnotic activity in po dosed CD rat Circadian time model assessed as non-rapid eye movement sleep administered during active phase measured from starting time CT18; assay type: functional, organism-based
[22] = tested on: Liver microsomes; assay: Intrinsic clearance in human liver microsomes; assay type: ADME, Microsome
[23] = Half life in CD rat at 1 mg/kg, iv and 3 mg/kg, po; assay type: ADME, organism-based; conditions: in vivo
[24] = tested on: Rattus norvegicus; assay: Neurotoxicity in CD rat assessed as impairment of motor coordination at 1 to 10 mg/kg, po by rotarod test in presence of 1 g/kg, ip ethanol; assay type: toxicity, organism-based; design: dose 1-10 mg/kg, route oral; conditions: in vivo
[25] = tested on: Rattus norvegicus; assay: In vivo antagonist activity at OX1R in CD rat assessed as reduction of OX-A induced grooming dosed orally 3 hrs before OX-A injection measured after 1 hrs; assay type: functional, organism-based
[26] = tested on: Rattus norvegicus; assay: Hypnotic activity in po dosed CD rat Circadian time model assessed as rapid eye movement sleep administered during active phase measured from starting time CT18; assay type: functional, organism-based
[27] = Fraction unbound in CD rat plasma at 1 mg/kg, iv after 1 hrs; assay type: ADME, organism-based; design: dose 1 mg/kg, route intravenous
[28] = biological target: T2, Orexin receptor type 2; assay: Displacement of [3H]almorexant from recombinant human OX2R expressed in CHO cells; assay type: cell-based
[29] = Fraction unbound in CD rat brain at 1 mg/kg, iv after 1 hrs; assay type: ADME, organism-based; design: dose 1 mg/kg, route intravenous
[30] = tested on: Rattus norvegicus; assay: Neurotoxicity in CD rat assessed as impairment of motor coordination at 1 to 10 mg/kg, po by rotarod test; assay type: toxicity, organism-based; design: dose 1-10 mg/kg, route oral; conditions: in vivo
[31] = tested on: Rattus norvegicus; assay: Hypnotic activity in CD rat Circadian time model assessed as non-rapid eye movement latency period at 3 mg/kg, po administered during active phase measured from starting time CT18 (reference value: 46.1 +/- 10.0 mins); assay type: functional
[32] = tested on: Rattus norvegicus; assay: Hypnotic activity in CD rat Circadian time model assessed as rapid eye movement sleep at 30 mg/kg, po administered during active phase measured from starting time CT18 (reference value: 3.22 +/- 0.73 mins); assay type: functional
[33] = biological target: T5, Orexin/Hypocretin receptor type 1 (Rattus norvegicus) (UniProt P56718); assay: Agonist activity at recombinant rat OX1R expressed in CHO cells at 1 uM; assay type: functional, cell-based
T5 sequence (whole entry): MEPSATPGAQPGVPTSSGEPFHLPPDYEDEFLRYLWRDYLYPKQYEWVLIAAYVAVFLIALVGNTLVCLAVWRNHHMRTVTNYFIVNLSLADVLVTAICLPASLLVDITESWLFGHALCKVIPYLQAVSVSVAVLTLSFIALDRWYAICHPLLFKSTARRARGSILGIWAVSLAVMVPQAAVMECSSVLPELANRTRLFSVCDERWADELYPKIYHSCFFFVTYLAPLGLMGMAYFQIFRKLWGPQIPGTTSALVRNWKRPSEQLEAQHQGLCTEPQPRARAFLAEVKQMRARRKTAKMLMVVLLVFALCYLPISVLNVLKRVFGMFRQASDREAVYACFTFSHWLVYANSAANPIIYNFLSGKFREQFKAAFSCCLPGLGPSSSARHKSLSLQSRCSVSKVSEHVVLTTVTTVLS

[34] = Ratio of drug level in brain to blood in CD rat at 1 mg/kg, iv after 1 hrs; assay type: ADME, organism-based; design: dose 1 mg/kg, route intravenous; conditions: read-out: BBR
[35] = biological target: T6, Orexin/Hypocretin receptor type 1 (Rattus norvegicus, UniProt P56718); assay: Antagonist activity at recombinant rat OX1R expressed in CHO cells by FLIPR calcium based functional assay; assay type: cell-based
T6 sequence (P56718 whole entry): T5 sequence (whole entry)

[36] = tested on: Rattus norvegicus; assay: Hypnotic activity in CD rat Circadian time model assessed as rapid eye movement sleep at 3 mg/kg, po administered during active phase measured from starting time CT18 (reference value: 3.22 +/- 0.73 mins); assay type: functional
[37] = tested on: Rattus norvegicus; assay: Hypnotic activity in CD rat Circadian time model assessed as awake period at 3 mg/kg, po administered during active phase measured from starting time CT18 (reference value: 218 +/- 11.32 mins); assay type: functional
[38] = tested on: Rattus norvegicus; assay: Hypnotic activity in CD rat Circadian time model assessed as rapid eye movement sleep at 10 mg/kg, po administered during active phase measured from starting time CT18 (reference value: 3.22 +/- 0.73 mins); assay type: functional
[39] = tested on: Rattus norvegicus; assay: Hypnotic activity in CD rat Circadian time model assessed as non-rapid eye movement sleep at 30 mg/kg, po administered during active phase measured from starting time CT18 (reference value: 78.1 +/- 11.3 mins); assay type: functional
[40] = tested on: Rattus norvegicus; assay: Hypnotic activity in CD rat Circadian time model assessed as non-rapid eye movement latency period at 30 mg/kg, po administered during active phase measured from starting time CT18 (reference value: 46.1 +/- 10.0 mins); assay type: functional

Compound: O=C(C[C@@H]1CCCCN1C(=O)c1ccccc1-c1ccccc1)Nc1ccccc1
- Ki [1]: 50.1 nM
- Ki [2]: 31.6 nM

Compound: O=C(c1ccccc1-c1ccccc1)N1CCCCC1CCOc1ccc(F)cc1 (racemic)
- Ki [1]: 5.01 nM
- CL [22]: > 50 mL/min/g
- Ki [2]: 20 nM

Compound: O=C(CC[C@@H]1CCCCN1C(=O)c1ccccc1-c1ccccc1)c1ccccc1
- Ki [1]: 10 nM
- Ki [2]: 20 nM

Compound: O=C(NC[C@@H]1CCCCN1C(=O)c1ccccc1-c1ccccc1)Nc1ccccc1
- Ki [1]: 1 nM
- Ki [2]: 5.01 nM

The next lines start with results.

- Ki [1]: 39.8 nM
- Ki [2]: 31.6 nM
Compound: O=C(NC[C@H]1CCCCN1C(=O)c1ccccc1-c1ccccc1)c1ccc(F)cc1

- bioavailability [3]: 85%
- Vd [6]: 1.1 L/kg
- Ki [10]: 0.759 nM
- Activity [11]: inactive
- Cmax [15]: 333 ng/mL
- Ki [18]: 0.0776 nM
- clearance [20]: 24 mL/min/kg
- CL [22]: 15.1 mL/min/g
- half-life [23]: < 36 min
- fraction unbound at 1 h [27]: 0.0134
- Ki [28]: 1.29 nM
- fraction unbound at 1 h [29]: 0.0528
- Activity [33]: inactive
- Kp at 1 h [34]: 0.1
- Ki [35]: 0.117 nM
Compound: Cc1nc(C(=O)N2CCCC[C@H]2CNC(=O)c2cccc3occc23)c(-c2ccc(F)cc2)s1 [SB-649868]
- Time [4]: 30.1 min
- Time [5]: 26.6 min
- Time [7]: 13.8 min
- Time [8]: 165.2 min
- Time [9]: 99.3 min
- Time [12]: 182 min
- Time [13]: 87 min
- Activity [14]: Dose-dependent effect
- Time [16]: 11.6 min
- Time [17]: 117 min
- Activity [19]: Dose-dependent effect
- Activity [21]: Dose-dependent effect
- Activity [24]: Non-toxic
- Activity [25]: Dose-dependent effect
- Activity [26]: Dose-dependent effect
- Activity [30]: Non-toxic
- Time [31]: 19 min
- Time [32]: 24.1 min
- Time [36]: 6.5 min
- Time [37]: 194 min
- Time [38]: 17.7 min
- Time [39]: 186.6 min
- Time [40]: 8.3 min

- Ki [1]: 0.126 nM
- CL [22]: 23 mL/min/g
- Ki [2]: 0.251 nM
Compound: O=C(NC[C@@H]1CCCCN1C(=O)c1ccccc1-c1ccccc1)c1ccc(F)cc1
